Reference: patent US7399608B2, “Microbial detection and quantification” (Kimberly-Clark Worldwide, Inc., priority 2003, dated 2008)

How the values were obtained:
Bleach indicator test = type: physicochemical; conditions: mixture with Reichardt's dye coated on SCOTT towel
[1] = system: bacteria in aged chicken juice; test: Dye solution dropped onto aged chicken juice on SCOTT paper towel (comparative examples); conditions: comparative dye solution dropped onto aged chicken juice on SCOTT paper towel
[2] = system: microbes in aged female human urine; test: N-methylmerocyanine coated onto kitchen paper towel, aged urine
[3] = system: budgerigar feces suspension; test: N-methyl merocyanine coated paper towel, pet bird feces suspension; conditions: Atlanta city domestic tap water
Method: Budgerigar feces was collected from a caged pet budgie, and shaken in approximately 10 ml of Atlanta city domestic tap water. N-methyl merocyanine dye of structure 33 above was synthesized as described above.

[4] = system: bacteria in aged chicken juice; test: N-docosyl-merocyanine dye coated onto cotton fabric, aged chicken juice; conditions: 47 mg in 10 g dimethylformamide, supernatant on woven cotton

| SMILES | color change on aged chicken juice [1] | further results |
| --- | --- | --- |
| Cc1cc(-c2cc(C)c(N)c(C)c2)cc(C)c1N [TMB, reference compound] |  | response of TMB to dilute bleach (Bleach indicator test): turning orange/yellow color |
| CCN(CC)c1ccc2c(-c3ccc(S(=O)(=O)O)cc3S(=O)(=O)[O-])c3ccc(=[N+](CC)CC)cc-3oc2c1 [Cl Acid Red 52, sulforhodamine B] | No color changes were observed |  |
| Cc1ccc(Nc2ccc(Nc3ccc(C)cc3S(=O)(=O)[O-])c3c2C(=O)c2c(O)ccc(O)c2C3=O)c(S(=O)(=O)[O-])c1.[Na+].[Na+] [Cl Acid Green 41] | No color changes were observed |  |
| COc1cc(/C=C/c2cc[n+](C)cc2)ccc1[O-] [N-methyl merocyanine dye] |  | color change with aged urine filtered through 0.2 micron filter ([2]; urine stored 24 hours at 37° C.): did not cause a color change; color change with aged urine filtered through 0.2 micron filter ([2]; urine stored 8 days at room temperature): did not cause a color change; color of coated towel with tap water control [3]: the area remained orange |
| O=C([O-])C1=NN(c2ccc(S(=O)(=O)[O-])cc2)C(=O)C1N=Nc1ccc(S(=O)(=O)[O-])cc1.[Na+].[Na+].[Na+] (centres unmarked) [Cl Acid Yellow 23, tartrazine] | No color changes were observed |  |
| CCCCCCCCCCCCCCCCCCCCCC[n+]1ccc(C=Cc2ccc(O)cc2)cc1.[Br-] |  | color change of orange-yellow dye spots on cotton [4]: color change to very pale yellow |
| Cc1ccc(Nc2ccc(Nc3ccc(C)cc3S(=O)(=O)[O-])c3c2C(=O)c2ccccc2C3=O)c(S(=O)(=O)[O-])c1.[Na+].[Na+] [Cl Acid Green 25] | No color changes were observed |  |
| CC(=O)Nc1ccc(/N=N/c2c(N)ccc3cc(S(=O)(=O)[O-])cc(O)c23)c(S(=O)(=O)[O-])c1.[Na+].[Na+] [Cl Acid Red 37] | No color changes were observed |  |
| O=C1/C(=C2\Nc3ccc(S(=O)(=O)[O-])cc3C2=O)Nc2ccc(S(=O)(=O)[O-])cc21.[Na+].[Na+] [Cl Acid Blue 74, Indigo Carmine] | No color changes were observed |  |
